Data taken from US5801152A, “Antracycline disaccharides, process for their preparation, and pharmaceutical compositions containing them” (A. Menarini Industrie Farmaceutiche Riunite S.r.l., priority 1993, dated 1998).
In brackets after ≈: the same amount, converted by molar mass. Where a name gives a salt, the structure may show the parent alone. Read-outs that look alike come from different tables or passages of the source.

Experiments:
[1] = tested on: human ovarian carcinoma A2780; assay: Effect against human ovarian carcinoma A2780 (in vivo), athymic mice; set-up: species or system human tumor in athymic mice; conditions: for antitumor activity compared with doxorubicin (in words): against A2780 ovarian carcinoma; for toxicity deaths / tumor inhibition (Tumor Weight Inhibition %, TWI%): i.v., optimal dose: DXR 7 mg/Kg, IIa 8.5 mg/Kg (days 11, 18, 25), IIc 5 mg/Kg (days 11, 15, 18, 21, 25); for tumor inhibition (Tumor Weight Inhibition %, TWI%): determined 7-10 days after last treatment
Procedure: (§1) For in vivo studies athymic mice were injected subcutaneous with tumor fragments in both flanks. Growth of tumors was followed by twice weekly caliper measurement of length and width. Tumor weight was calculated using the formula: mg=volume in mm^3 =width^2 ×length/2 (considering density=1).
(§2) The test compounds were delivered, at the optimal doses and schedules, intravenously (i.v.) to tumor-bearing mice starting at different times in the different tumors using (see experiments for details). The effects achieved by the treatments were expressed as Tumor Weight Inhibition % (TWI%) in treated versus control mice, determined 7-10 days after the last drug treatment.

[2] = tested on: LOVO (colon) cells; assay: Cytotoxic activity in vitro, MTT assay, LOVO (colon); assay type: cell-based; conditions: Homo sapiens
Procedure: (§3) was tested, in comparison with doxorubicin, against a variety of human tumors of different histotypes including ovarian carcinoma, lung cancer , breast cancer, cervical carcinoma, colon cancer.
(§4) Cell survival, following test compound exposure, was evaluated by the growth inhibition test, with the exception of small cell lung cancer cell lines (SCLC). Cells in the logarithmic phase of growth were harvested and placed into 6-well. Twenty-four h after seeding, cells were exposed to test compounds for different times. After replacement with drug-free medium, cells were harvested and counted 72 h following compound exposure. In the case of SCLC, MCF-7 and LOVO, the MTT assay has been used and the colorimetric evaluation of survival was performed at the end of the incubation time (24 or 96 h). The results obtained from cytotoxicity experiments are expressed as IC50 (i.e., concentration required for 50% inhibition of cell growth).
(§5) The test compounds were dissolved in distilled water and then diluted in culture medium.

[3] = tested on: POVD (small cell lung cancer) cells; assay: Cytotoxic activity in vitro, MTT assay, POVD (small cell lung cancer); assay type: cell-based; conditions: Homo sapiens
Procedure: as §3, §4, §5

[4] = tested on: MCF-7 (breast) cells; assay: Cytotoxic activity in vitro, MTT assay, MCF-7 (breast); assay type: cell-based; conditions: Homo sapiens
Procedure: as §3, §4, §5

[5] = tested on: A2780 (ovarian) cells; assay: Cytotoxic activity in vitro, growth inhibition test, A2780 (ovarian); assay type: cell-based; conditions: Homo sapiens
Procedure: as §3, §4, §5

[6] = tested on: A431 (cervix) cells; assay: Cytotoxic activity in vitro, growth inhibition test, A431 (cervix); assay type: cell-based; conditions: Homo sapiens
Procedure: as §3, §4, §5

[7] = tested on: human small cell lung carcinoma POVD; assay: Effect against human small cell lung carcinoma POVD (in vivo), athymic mice; set-up: species or system human tumor in athymic mice; conditions: for antitumor activity (in words): SCLC tumor POVD; for toxicity deaths / tumor inhibition (Tumor Weight Inhibition %, TWI%): i.v., optimal dose: DXR 7 mg/Kg, IIa 8.5 mg/Kg (days 10, 17, 24), IIc 5 mg/Kg (days 10, 14, 17, 21, 24); for tumor inhibition (Tumor Weight Inhibition %, TWI%): determined 7-10 days after last treatment
Procedure: as §1, §2

[8] = tested on: H-460 (non-small cell lung cancer) cells; assay: Cytotoxic activity in vitro, growth inhibition test, H-460 (non-small cell lung cancer); assay type: cell-based; conditions: Homo sapiens
Procedure: as §3, §4, §5

[9] = LOVO (colon), drug exposure 24 h, read-out: IC50
[10] = POVD (small cell lung cancer), drug exposure 96 h, read-out: IC50
[11] = MCF7, MCF-7 (breast), drug exposure 24 h, read-out: IC50
[12] = A2780 (ovarian), drug exposure 24 h, read-out: IC50
[13] = A-431, A431 (cervix), drug exposure 24 h, read-out: IC50
[14] = NCI-H460, H-460 (non-small cell lung cancer), drug exposure 24 h, read-out: IC50

SMILES | antitumor activity compared with doxorubicin (in words) [1] | toxicity deaths [1] | tumor inhibition (Tumor Weight Inhibition %, TWI%) [1] [%] | IC50 [2, 9] [µg/mL] | IC50 [3, 10] [µg/mL] | IC50 [4, 11] [µg/mL] | IC50 [5, 12] [µg/mL] | IC50 [6, 13] [µg/mL] | antitumor activity (in words) [7] | toxicity deaths [7] | tumor inhibition (Tumor Weight Inhibition %, TWI%) [7] [%] | IC50 [8, 14] [µg/mL] | IC50 ([2]; LoVo, 24 h) [µg/mL] | IC50 ([3]; 96 h) [µg/mL] | IC50 ([4]; MCF7, 24 h) [µg/mL] | IC50 ([5]; A2780, 24 h) [µg/mL] | IC50 ([6]; A-431, 24 h) [µg/mL] | IC50 ([8]; NCI-H460, 24 h) [µg/mL]
C[C@@H]1O[C@@H](O[C@@H]2[C@H](C)O[C@@H](O[C@H]3C[C@](O)(C(=O)CO)Cc4c(O)c5c(c(O)c43)C(=O)c3ccccc3C5=O)C[C@@H]2O)C[C@H](N)[C@@H]1O [IIc, 7-0-[2,6-dideoxy-4-0-(2,3,6-trideoxy-3amino-a-L-lyxo-exopyranosyl)-a-L-lyxo-exopyranosyl]-4-demethoxy-doxorubicinone hydrochloride] | antitumor activity greatly superior to that of the parent compund | 0/5 | 99 | 0.01 | 0.011 | 0.0056 | 0.005 | 0.016 | very high antitumor activity | 0/5 | 91 | 0.01 | – | – | – | – | – | –
C[C@@H]1O[C@@H](O[C@@H]2[C@H](C)O[C@@H](O[C@H]3C[C@](O)(C(=O)CO)Cc4c(O)c5c(c(O)c43)C(=O)c3ccccc3C5=O)C[C@@H]2O)C[C@H](O)[C@@H]1O [IIb, 7-0-[2,6-dideoxy-4-0-(2,6-dideoxy-a-L-lyxo-exopyranosyl)-a-L-lyxo-exopyranosyl]-4-demethoxy-doxorubicinone hydrochloride] | – | – | – | 0.0085 | 0.02 | 0.015 | 0.01 | 0.026 | – | – | – | 0.018 | – | – | – | – | – | –
COc1cccc2c1C(=O)c1c(O)c3c(c(O)c1C2=O)C[C@@](O)(C(=O)CO)C[C@@H]3O[C@H]1C[C@H](N)[C@H](O)[C@H](C)O1 [DXR, doxorubicin, reference compound] | – | 0/5 | 68 | – | – | – | – | – | refractory | 0/5 | 44 | – | 0.01 (≈ 0.0184 µM) | 0.034 (≈ 0.0626 µM) | 0.01 (≈ 0.0184 µM) | 0.03 (≈ 0.0552 µM) | 0.036 (≈ 0.0662 µM) | 0.02 (≈ 0.0368 µM)
CC(=O)[C@]1(O)Cc2c(O)c3c(c(O)c2[C@@H](O[C@H]2C[C@H](O)[C@H](O[C@H]4C[C@H](N)[C@H](O)[C@H](C)O4)[C@H](C)O2)C1)C(=O)c1ccccc1C3=O [IIa, 7-0-[2,6-dideoxy-4-0-(2,3,6-trideoxy-3-amino-a-L-lyxo-exopyranosyl)-a-L-lyxo-exopyranosyl]-4-demethoxy-daunorubicinone hydrochloride] | at least the same effectiveness than doxorubicin | 0/5 | 75 | 0.0065 | 0.015 | 0.01 | 0.001 | 0.012 | very high antitumor activity | 0/5 | 80 | 0.015 | – | – | – | – | – | –
